Consider three compounds from patent US20230240302A1, “Antimicrobial silver coordination complexes” (Penta Science Industries Holding B.V., priority 2020, published 2023).

The nature of one data set: Solubility. Format: physicochemical.
Data set [1] is described as follows: Photochemical and thermal stability. Format: physicochemical.

As to `O=S(=O)([O-])CCC[S-].O=S(=O)([O-])CCC[S-].[Ag+].[Na+].[Na+].[Na+]` [Na^+3[Ag^+(MPS^2−)2]^3−], in “Solubility”, the “solubility in aqueous solution” value is “very high solubility”.
As to `O=S(=O)([O-])c1ccc2[nH]c([S-])nc2c1.O=S(=O)([O-])c1ccc2[nH]c([S-])nc2c1.[Ag+].[Na+].[Na+].[Na+]` [Na^+3[Ag^+(X^2−)2]^3−], in “Solubility”, the “solubility in aqueous solution” value was “very high solubility”. Besides, the “photochemical and thermal stability” value in data set [1] is “thermally and photochemically stable”.
For the compound `O=C([O-])c1ccccc1[S-].O=C([O-])c1ccccc1[S-].[Ag+].[Na+].[Na+].[Na+]` [Na^+3[Ag^+(TS^2−)2]^3−], the “solubility in aqueous solution” value in the data set “Solubility” is on record as “very high solubility”. The “photochemical and thermal stability” value in data set [1] is “thermally and photochemically stable”.
